Patent US20240165281A1, “DUAL MODE RADIOTRACER AND THERAPEUTICS” (Technische Universität München, priority 2021, published 2024)
Read-outs that look alike come from different tables or passages of the source.

Tests used:
[1] = system: LNCaP tumor-bearing male CB-17 SCID mice; experiment: Biodistribution studies 24 h p.i.; settings: for uptake in adrenals / uptake in blood / uptake in bone / uptake in heart / uptake in intestine / uptake in kidney / uptake in liver / uptake in lung / uptake in muscle / uptake in pancreas / uptake in spleen / uptake in stomach / uptake in tumor / uptake in parotid gl. / uptake in submand. gl.: mean; for In vivo biodistribution (24 h p.i.) blood / In vivo biodistribution (24 h p.i.) kidney / In vivo biodistribution (24 h p.i.) tumor: Table 6; for Kidneys (24 h) / Tumor (24 h) / T/K-ratio: Table 1; for T/K-ratio: tumor/kidney
Procedure: Approximately 3-7 MBq (0.1-0.2 nmol) of the radioactive-labelled PSMA inhibitors were injected into the tail vein of LNCaP tumor-bearing male CB-17 SCID mice and sacrificed after 24 h post injection. Selected organs were removed, weighted and measured in a γ-counter. Results are all decay corrected and given in % injected dose per gram of tissue (% iD/g). Tumor-to-organ ratios are calculated from animals' individual ratios and are given as mean±standard deviation.

[2] = Octanol-water partition coefficient (log D7.4); assay type: physicochemical; settings: PBS pH 7.4 / n-octanol, 177Lu-labelled
Procedure: Octanol-Water Partition Coefficient (log D7.4)
Approximately 1 MBq of the labelled tracer was dissolved in 1 mL of a 1:1 mixture (v/v) of PBS (pH 7.4) and n-octanol in a reaction vial (1.5 mL). After vigorous mixing of the suspension for 3 minutes at room temperature, the vial was centrifuged at 15000 g for 3 minutes (Biofuge 15, Heraus Sepatech, Osterode, Germany) and 100 μL aliquots of both layers were measured in a gamma counter. The experiment was repeated at least six times.

PSMA = molecular target: T1, PSMA (Homo sapiens, UniProt Q04609); experiment: PSMA affinity (IC50), competition with [125I]I-BA-KuE on LNCaP cells; assay type: binding; settings: natLu complex, on ice 60 min
T1 construct: PSMA-positive LNCAP cells (300265; Cell Lines Service, Eppelheim, Germany); host or cells: LNCaP cells
T1 sequence (Q04609 whole entry): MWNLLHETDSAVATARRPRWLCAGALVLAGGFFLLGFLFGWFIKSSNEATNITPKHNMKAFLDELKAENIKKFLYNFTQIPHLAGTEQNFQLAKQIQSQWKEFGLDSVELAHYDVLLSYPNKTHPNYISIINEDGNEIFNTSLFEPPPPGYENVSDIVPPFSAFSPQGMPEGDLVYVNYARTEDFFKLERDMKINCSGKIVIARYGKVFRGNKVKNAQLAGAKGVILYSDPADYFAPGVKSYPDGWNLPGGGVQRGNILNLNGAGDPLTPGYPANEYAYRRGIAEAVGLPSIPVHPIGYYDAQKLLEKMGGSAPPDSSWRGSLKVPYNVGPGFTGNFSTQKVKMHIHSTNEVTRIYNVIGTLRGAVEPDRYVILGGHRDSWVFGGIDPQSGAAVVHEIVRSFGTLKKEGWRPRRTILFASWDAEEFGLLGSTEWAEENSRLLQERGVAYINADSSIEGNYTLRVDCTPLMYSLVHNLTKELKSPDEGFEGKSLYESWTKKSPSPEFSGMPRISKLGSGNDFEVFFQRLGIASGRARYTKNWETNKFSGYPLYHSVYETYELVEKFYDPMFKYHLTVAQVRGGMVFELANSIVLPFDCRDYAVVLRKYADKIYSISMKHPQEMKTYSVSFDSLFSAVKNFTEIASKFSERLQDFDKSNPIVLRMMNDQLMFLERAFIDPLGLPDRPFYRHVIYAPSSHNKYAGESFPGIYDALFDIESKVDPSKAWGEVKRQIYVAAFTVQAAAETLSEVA
Procedure: A mixture of trypsin and EDTA (0.05%, 0.02%) in PBS (Biochrom) was used in order to harvest cells. Cells were counted with a Neubauer hemocytometer (Paul Marienfeld, Lauda-Königshofen, Germany).
Affinity Determinations (IC50)
In the case of metal-complexed ligands, the crude reaction mixture was diluted analogously, without further purification. Cells were harvested 24±2 hours prior to the experiment and seeded in 24-well plates (1.5×10^5 cells in 1 mL/well). […] The media of both steps were combined in one fraction and represent the amount of free radioligand. Afterwards, the cells were lysed with 250 μL of 1 M aqueous NaOH for at least 10 min. After a washing step (250 μL of 1 M NaOH), both fractions, representing the amount of bound ligand, were united. Quantification of all collected fractions was accomplished in a γ-counter. PSMA-affinity determinations were carried out at least three times per ligand.

LNCaP cells = experiment: Internalization studies in LNCaP cells; assay type: cell-based; settings: 37° C., 60 min
Procedure: PSMA-positive LNCAP cells (300265; Cell Lines Service, Eppelheim, Germany) were cultivated in Dulbecco modified Eagle medium/Nutrition Mixture F-12 with Glutamax (1:1) (DMEM-F12, Biochrom, Berlin, Germany) supplemented with fetal bovine serum (10%, FBS Zellkultur, Berlin, Germany) and kept at 37° C. in a humidified CO2 atmosphere (5%). A mixture of trypsin and EDTA (0.05%, 0.02%) in PBS (Biochrom) was used in order to harvest cells. Cells were counted with a Neubauer hemocytometer (Paul Marienfeld, Lauda-Königshofen, Germany).
For internalization studies, LNCaP cells were harvested 24±2 hours before the experiment and seeded in poly-L-lysine coated 24-well plates (1.25×10^5 cells in 1 mL/well, Greiner Bio-One, Kremsmünster, Austria). After removal of the culture medium, the cells were washed once with 500 μL DMEM-F12 (5% BSA) and left to equilibrate for at least 15 min at 37° C. in […] DMEM-F12 (5% BSA). Each well was treated with either 25 μL of either DMEM-F12 (5% BSA, control) or 25 μL of a 100 μM PMPA (2-(Phosphonomethyl)-pentandioic acid, Tocris Bioscience, Bristol, UK) solution in PBS, for blockade. Next, 25 μL of the radioactive-labelled PSMA inhibitor (10.0 nM in DMEM-F12 (5% BSA)) was added and the cells were incubated at 37° C. for 60 min. The experiment was terminated by placing the 24-well plate on ice for 3 min and consecutive removal of the medium. Each well was carefully washed with 250 μL of ice-cold HBSS. Both fractions from the first steps, representing the amount of free radioligand, were combined. Removal of surface bound activity was accomplished by incubation of the cells with 250 μL of ice-cold PMPA (10 μM in PBS) solution for 5 min and rinsed again with another 250 μL of ice-cold PBS. The internalized activity was determined by incubation of the cells in 250 μL […] aqueous NaOH for at least 10 min. The obtained fractions were combined with those of the subsequent wash step with 250 μL 1 M aqueous NaOH. Each experiment (control and blockade) was performed in triplicate. Free, surface bound and internalized activity was quantified in a y-counter. All internalization studies were accompanied by external reference studies, using ([^125I]I-BA)KuE (c=0.2 nM), which were performed analogously. Data were corrected for non-specific binding and normalized to the specific-internalization observed for the radioiodinated reference compound.

[3] = molecular target: T2, Human Serum Albumin (HSA) (Homo sapiens, UniProt P02768); experiment: Human serum albumin (HSA) binding by high performance affinity chromatography (HPAC); assay type: in vitro ADME; settings: Chiralpak HSA column
T2 construct: purchased Daicel H13H-2433
T2 sequence (P02768 25-609): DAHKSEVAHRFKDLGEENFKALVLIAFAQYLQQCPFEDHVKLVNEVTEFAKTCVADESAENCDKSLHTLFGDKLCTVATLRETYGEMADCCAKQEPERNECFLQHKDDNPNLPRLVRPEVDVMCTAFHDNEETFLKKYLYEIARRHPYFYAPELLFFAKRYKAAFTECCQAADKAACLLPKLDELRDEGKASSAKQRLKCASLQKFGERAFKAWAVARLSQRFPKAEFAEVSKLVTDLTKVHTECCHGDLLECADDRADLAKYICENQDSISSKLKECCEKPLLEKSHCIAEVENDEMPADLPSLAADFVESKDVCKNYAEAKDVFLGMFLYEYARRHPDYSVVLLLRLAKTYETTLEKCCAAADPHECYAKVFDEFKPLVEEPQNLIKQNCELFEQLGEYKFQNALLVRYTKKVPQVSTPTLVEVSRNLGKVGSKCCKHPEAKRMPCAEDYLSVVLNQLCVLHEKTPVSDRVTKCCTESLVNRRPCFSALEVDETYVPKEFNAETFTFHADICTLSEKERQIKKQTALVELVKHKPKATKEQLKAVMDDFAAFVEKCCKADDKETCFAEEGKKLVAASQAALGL
Procedure: Determination of Human Serum Albumin (HSA) Binding by High Performance Affinity Chromatography (HPAC)
HSA binding of the PSMA-addressing ligands was determined according to a previously published procedure via HPLC (Valko, K.; Nunhuck, S.; Bevan, C.; Abraham, M. H.; Reynolds, D. P. Journal of pharmaceutical sciences 2003, 92, 2236-2248). A Chiralpak HSA column (50×3 mm, 5 μm, H13H-2433, Daicel, Tokyo, Japan) was used at a constant flow rate of 0.5 mL/min at rt. Mobile phase A was a freshly prepared 50 mM aqueous solution of NH4OAc (pH 6.9) and mobile phase B was isopropanol (HPLC grade, VWR). The applied gradient for all experiments was 100% A (0 to 3 min), followed by 80% A (3 to 40 min). Prior to the experiment, the column was calibrated using nine reference substances with a HSA binding, known from literature, in the range of 13 to 99% (Valko, K.; Nunhuck, S.; Bevan, C.; Abraham, M. H.; Reynolds, D. P. Journal of pharmaceutical sciences 2003, 92, 2236-2248; Yamazaki, K.; Kanaoka, M. Journal of Pharmaceutical sciences 2004, 93, 1480-1494). All substances, including the examined PSMA ligands, were dissolved in a 1:1 mixture (v/v) of isopropanol and a 50 mM aqueous solution of NH4OAc (pH6.9) with a final concentration of 0.5 mg/mL. Non-linear regression was established with the OriginPro 2016G software (Northampton, United States) (FIG. 8).

[4] = Apparent molecular weight (MWapp)

Compound | uptake in adrenals [1] [% iD/g] | uptake in blood [1] [% iD/g] | uptake in bone [1] [% iD/g] | uptake in heart [1] [% iD/g] | uptake in intestine [1] [% iD/g] | uptake in kidney [1] [% iD/g] | uptake in liver [1] [% iD/g] | uptake in lung [1] [% iD/g] | uptake in muscle [1] [% iD/g] | uptake in pancreas [1] [% iD/g] | uptake in spleen [1] [% iD/g] | uptake in stomach [1] [% iD/g] | uptake in tumor [1] [% iD/g] | logD7.4 [2] | IC50 (PSMA; read-out: IC50) [nM] | Internalization (LNCaP cells; normalized to reference) [% IBA] | HSA (HPAC) [3] [%] | MWapp [4] [kDa] | In vivo biodistribution (24 h p.i.) blood [1] [% iA/g] | In vivo biodistribution (24 h p.i.) kidney [1] [% iA/g] | other results
PSMA-617 [reference compound] | 0.1910 | 0.0056 | 0.0267 | 0.0119 | 0.1185 | 1.4421 | 0.1167 | 0.0393 | 0.0092 | 0.0106 | 0.0812 | 0.0201 | 7.4568 |  |  |  |  |  |  |  | tumor-to-organ ratio adrenals ([1]; n = 4, mean): 43.54; tumor-to-organ ratio blood ([1]; n = 4, mean): 1423.84; tumor-to-organ ratio bone ([1]; n = 4, mean): 471.67; tumor-to-organ ratio heart ([1]; n = 4, mean): 704.01; tumor-to-organ ratio intestine ([1]; n = 4, mean): 90.33; tumor-to-organ ratio kidney ([1]; n = 4, mean): 5.85; tumor-to-organ ratio liver ([1]; n = 4, mean): 91.22; tumor-to-organ ratio lung ([1]; n = 4, mean): 210.40; tumor-to-organ ratio muscle ([1]; n = 4, mean): 855.38; tumor-to-organ ratio pancreas ([1]; n = 4, mean): 798.52; tumor-to-organ ratio spleen ([1]; n = 4, mean): 93.28; tumor-to-organ ratio stomach ([1]; n = 4, mean): 375.80
CC(C)(C)[Si](F)(c1ccc(C(=O)NC[C@@H](NC(=O)[C@@H](CCCNC(N)=O)NC(=O)CC[C@H](C(=O)O)N2CCN(CC(=O)O)CCN(CC(=O)O)CCN(CC(=O)O)CC2)C(=O)NCCCCCC(=O)NCCC[C@@H](NC(=O)CC[C@H](NC(=O)N[C@@H](CCC(=O)O)C(=O)O)C(=O)O)C(=O)O)cc1)C(C)(C)C [Compound 2C015] | 0.1013 | 0.0007 | 0.0223 | 0.0237 | 0.1103 | 2.2339 | 0.164 | 0.0468 | 0.0062 | 0.0212 | 0.2671 | 0.036 | 8.9821 | −3.40 ± 0.10 | 3.99 ± 0.74 | 226 ± 10 | 95.0 | 18.9 | 0.0007 ± 0.0005 | 2.23 ± 1.29 | In vivo biodistribution (24 h p.i.) tumor [1]: 8.98 ± 2.32 % iA/g; uptake in parotid gl. [1]: 0.0674 % iD/g; uptake in submand. gl. [1]: 0.0389 % iD/g
CC(C)(C)[Si](F)(c1ccc(C(=O)NCC(NC(=O)CCC(C(=O)O)N2CCN(CC(=O)O)CCN(CC(=O)O)CCN(CC(=O)O)CC2)C(=O)NC(CN)C(=O)NCCC(=O)NCCC(=O)NCCCC(NC(=O)CCC(NC(=O)NC(CCC(=O)O)C(=O)O)C(=O)O)C(=O)O)cc1)C(C)(C)C (stereo not drawn) [Compound 2C011] | 0.1488 | 0.0042 | 0.0363 | 0.0254 | 0.2229 | 2.0983 | 0.2848 | 0.0469 | 0.0067 | 0.0264 | 0.3218 | 0.0829 | 11.8594 | −2.88 ± 0.06 |  | 163.2 ± 6.91 | 89.8 | 18.9 | 0.0042 ± 0.0019 | 2.1 ± 0.49 | IC50 (PSMA): 6.08 ± 0.16 nM; In vivo biodistribution (24 h p.i.) tumor [1]: 11.86 ± 0.75 % iA/g; uptake in parotid gl. [1]: 0.0857 % iD/g; uptake in submand. gl. [1]: 0.052 % iD/g
O=C(O)CC[C@H](NC(=O)N[C@@H](CCCCNC(=O)[C@H](Cc1ccc2ccccc2c1)NC(=O)[C@H]1CC[C@H](CNC(=O)CN2CCN(CC(=O)O)CCN(CC(=O)O)CCN(CC(=O)O)CC2)CC1)C(=O)O)C(=O)O [PSMA-617, reference compound] |  |  |  |  |  |  |  |  |  |  |  |  |  | −4.10 | 3.3 ± 0.2 |  | 84.9 | 13.7 |  |  | Internalization (LNCaP cells; normalized to ([125I]I-BA)KuE): 203 ± 10 % IBA-KuE; Kidneys (24 h) [1]: 9.8 ± 2.7 % iD/g; Tumor (24 h) [1]: 11.6 ± 2.2 % iD/g; T/K-ratio [1]: 1.24 ± 0.29
CC(C)(C)[Si](F)(c1ccc(C(=O)NC[C@@H](NC(=O)CC[C@@H](C(=O)O)N2CCN(CC(=O)O)CCN(CC(=O)O)CCN(CC(=O)O)CC2)C(=O)N[C@H](CCCCNC(=O)CCC(=O)NCCC[C@@H](NC(=O)CC[C@H](NC(=O)N[C@@H](CCC(=O)O)C(=O)O)C(=O)O)C(=O)O)C(=O)O)cc1)C(C)(C)C [rhPSMA-7.3, reference compound] |  |  |  |  |  |  |  |  |  |  |  |  |  | −4.12 ± 0.11^ | 3.29 ± 1 |  | 98.6 | 30.4 |  |  | Internalization (LNCaP cells; normalized to ([125I]I-BA)KuE): 184 ± 12 % IBA-KuE; Kidneys (24 h) [1]: 1.4 ± 0.4 % iD/g; Tumor (24 h) [1]: 7.5 ± 0.9 % iD/g; T/K-ratio [1]: 5.17
